Results published in patent US20240409576A1, “-ent-19-norprogesterone, compositions and uses thereof to treat traumatic brain injury (TBI), including concussions-” (Oragenics, Inc., priority 2015, published 2024).
In brackets after ≈: the same amount, converted by molar mass. Entries after “also recorded” stand apart in the source; their conditions may differ. Read-outs that look alike come from different tables or passages of the source.

Assays:
[1] = test system: rat model of traumatic brain injury (mid-line cortical impact); type: in vivo, Sprague-Dawley rats; conditions: for Motor function (neuroscore) compared to vehicle-treated rats: 48 h post-injury, 6 h, 24 h
[2] = test system: rat model of traumatic brain injury (mid-line cortical impact); type: in vivo, Sprague-Dawley rats
[3] = test system: rat model of traumatic brain injury (mid-line cortical impact); type: in vivo, Sprague-Dawley rats; remark: listed apart in the source
[4] = test system: rat model of traumatic brain injury (mid-line cortical impact); type: in vivo, Sprague-Dawley rats; conditions: 48 h post-injury; for Time spent in thigmotaxia compared to vehicle-treated rats: trial not stated
[5] = test system: rat model of traumatic brain injury (mid-line cortical impact); type: in vivo, Sprague-Dawley rats; conditions: 48 h post-injury
physchem = conditions: aqueous with cosolvent or surfactant or cyclodextrin, thermodynamic from solid
nasal mucosa of a rat = test: Intranasal penetration of Evans Blue labeled PRV002, atomizer vs pipette; type: in vivo; conditions: PRV002 labeled with Evans Blue dye, post-mortem evaluation
Protocol: The goal of this study is to evaluate the motor and cognitive function of rats treated via intranasal administration with PRV-002, an analogue of the enantiomer of progesterone, following traumatic brain injury. Prior to the initiation of the treatment study, an anatomical evaluation is performed using PRV002 labeled with Evans Blue dye to determine the optimal intranasal/intracerebral penetration of compound using intranasal administration via a miniature atomizer vs. a manual pipette.

[6] = test system: rat model of traumatic brain injury (mid-line cortical impact); type: in vivo, Sprague-Dawley rats; conditions: 48 h post-injury; remark: listed apart in the source
[7] = under certain conditions; cited from earlier work
[8] = test system: moderate-to-severe adult TBI; conditions: progesterone IV for 3 days after injury, cited from earlier work
[9] = 48 h post-injury, intranasal 0.05 mg/kg
[10] = trial 1, intraperitoneal 4 mg/kg
[11] = trial 1, intraperitoneal 16 mg/kg
[12] = trial 2, intraperitoneal 4 mg/kg
[13] = trial 2, intraperitoneal 16 mg/kg
[14] = trial not given, intraperitoneal 4 mg/kg
[15] = trial not given, intraperitoneal 16 mg/kg

CC(=O)[C@@H]1CC[C@@H]2[C@H]3CCC4=CC(=O)CC[C@H]4[C@@H]3CC[C@]21C (single isomer, unassigned; ent-19) [PRV-002, ent-19-norpregn-4-ene-3,20-dione]
Group differences in neuroscore ([1]; 24 h post-injury, intraperitoneal 4 mg/kg or 16 mg/kg, sham, vehicle and treated groups): failed to reveal significant differences; also recorded: no significant group differences
Motor function (neuroscore) compared to vehicle-treated rats ([1]; intraperitoneal 4 mg/kg at 15 min): significant improvement; also recorded: significantly better motor performance; also recorded: significant attenuation of TBI-induced motor function deficits; also recorded: significantly better motor function
Motor function (neuroscore) compared to vehicle-treated rats ([1]; intraperitoneal 16 mg/kg at 15 min): significant improvement; also recorded: significantly better motor performance; also recorded: significant attenuation of TBI-induced motor function deficits; also recorded: significantly better motor function
Motor function (neuroscore) compared to vehicle-treated rats ([2]; 24 h post-injury, intranasal 0.1 mg/kg): significantly improved motor function
Motor function (neuroscore) compared to vehicle-treated rats ([2]; 24 h post-injury, intranasal 0.1 mg/kg, listed as PRV002): significantly improved
Motor function (neuroscore) compared to vehicle-treated rats ([2]; 24 h post-injury, intranasal 4 mg/kg): significantly improved motor function
Motor function (neuroscore) compared to vehicle-treated rats ([2]; 24 h post-injury, intranasal 4 mg/kg, listed as PRV002): significantly improved
Motor function (neuroscore) compared to vehicle-treated rats [2, 9]: significantly better motor function
Motor performance (neuroscore) compared to sham rats [2, 9]: significantly worse performance
Motor function (neuroscore) compared to vehicle-treated rats ([2]; 48 h post-injury, intranasal 0.05 mg/kg, listed as PRV002): significantly improved motor function
Motor function (neuroscore) compared to vehicle-treated rats ([2]; 48 h post-injury, intranasal 0.1 mg/kg): significantly better motor function
Motor function (neuroscore) compared to vehicle-treated rats ([2]; 48 h post-injury, intranasal 0.1 mg/kg, listed as PRV002): significantly improved motor function
Motor performance (neuroscore) compared to sham rats ([2]; 48 h post-injury, intranasal 1 mg/kg): significantly worse performance
Motor function (neuroscore) compared to vehicle-treated rats ([2]; 48 h post-injury, intranasal 4 mg/kg): significantly better motor function
Motor function (neuroscore) compared to vehicle-treated rats ([2]; 48 h post-injury, intranasal 4 mg/kg, listed as PR V-002): significantly better motor function
Motor function (neuroscore) compared to vehicle-treated rats ([2]; 48 h post-injury, intranasal 4 mg/kg, listed as PRV002): significantly improved motor function
Motor performance scores (neuroscore) compared to sham rats ([2]; rat, in vivo): not significantly different from sham rats
Cognitive function (post-traumatic memory) ([3]; 48 h post-injury/treatment, intranasal 4 mg/kg, trial not stated): significant improvement in cognitive function
Morris water maze memory score (cognitive performance) compared to all other groups ([3]; rat, in vivo): all groups have significantly lower memory scores than PRV-002 4 mg/kg-treated rats
Morris water maze memory score (cognitive performance) compared to all other groups ([3]; trial 1, 48 h post-injury, intranasal 4 mg/kg): significantly better cognitive performance
Group differences in cognitive performance (Morris water maze memory score) ([3]; trial 2, 48 h post-injury, intranasal 0.05, 0.1, 1, 4 mg/kg groups): significant group differences in cognitive performance are not observed
Group differences in time spent in thigmotaxia ([4]; trial 1, intranasal 0.05, 0.1, 1, 4 mg/kg groups): no significant group differences are observed in time spent in thigmotaxia
Time spent in thigmotaxia compared to vehicle-treated injured rats ([4]; trial 2, intranasal 4 mg/kg): significantly less time in thigmotaxia
Time spent in thigmotaxia compared to sham rats ([4]; trial 2, intranasal 005 mg/kg): significantly more time in thigmotaxia
Time spent in thigmotaxia compared to vehicle-treated rats ([4]; intranasal 4 mg/kg): spent significantly less time in thigmotaxia
Time spent in thigmotaxia compared to vehicle-treated rats ([4]; intranasal 4 mg/kg, listed as PRV002): significantly reduced
Resultant solution (30 mg in 1 ml Solution 1, mix time 60 min): Hazy
Resultant solution (+0.1 ml Solution 1, ~1.1 ml, mix time 120 min): Hazy
Resultant solution (+0.1 ml Solution 1, ~1.2 ml, mix O/N): Hazy to Clear
Time spent in thigmotaxia vs vehicle-treated injured rats [5, 10]: vehicle-treated rats spend significantly more time in thigmotaxia
Time spent in thigmotaxia vs vehicle-treated injured rats [5, 11]: vehicle-treated rats spend significantly more time in thigmotaxia
Time spent in thigmotaxia vs vehicle-treated injured rats [5, 12]: vehicle-treated rats spend significantly more time in thigmotaxia
Time spent in thigmotaxia vs vehicle-treated injured rats [5, 13]: vehicle-treated rats spend significantly more time in thigmotaxia
Time spent in thigmotaxia vs vehicle-treated injured rats [5, 14]: ameliorated; also recorded: vehicle-treated injured rats spend significantly more time in thigmotaxia; also recorded: spend less time in the thigmotaxia area
Time spent in thigmotaxia vs vehicle-treated injured rats [5, 15]: ameliorated; also recorded: vehicle-treated injured rats spend significantly more time in thigmotaxia; also recorded: spend less time in the thigmotaxia area
solubility (physchem): ~23 mg/mL (≈ 76.6 mM)
Nasal mucosal penetration, miniature atomizer vs manual pipette (nasal mucosa of a rat): clear advantage of the miniature atomizer over the pipette technique
Morris water maze memory score (cognitive deficits) vs vehicle-treated injured rats [6, 10]: significantly attenuated TBI-related cognitive deficits
Morris water maze memory score (cognitive deficits) vs vehicle-treated injured rats [6, 11]: significantly attenuated TBI-related cognitive deficits
Morris water maze memory score (cognitive deficits) vs vehicle-treated injured rats [6, 12]: significantly attenuated TBI-related cognitive deficits
Morris water maze memory score (cognitive deficits) vs vehicle-treated injured rats [6, 13]: significantly attenuated TBI-related cognitive deficits
Morris water maze memory score (cognitive deficits) vs vehicle-treated injured rats [6, 14]: ameliorated; also recorded: vehicle-treated injured rats have significantly worse cognitive function; also recorded: amelioration of TBI-induced cognitive deficits
Morris water maze memory score (cognitive deficits) vs vehicle-treated injured rats [6, 15]: ameliorated; also recorded: vehicle-treated injured rats have significantly worse cognitive function; also recorded: amelioration of TBI-induced cognitive deficits

CC(=O)[C@@H]1CC[C@@H]2[C@H]3CCC4=CC(=O)CC[C@@]4(C)[C@@H]3CC[C@]21C [ent-Progesterone, ent-progesterone]
Antioxidant activity relative to racemate [7]: three times the antioxidant activity of racemate

CC(=O)[C@H]1CC[C@H]2[C@@H]3CCC4=CC(=O)CC[C@]4(C)[C@H]3CC[C@]12C [progesterone]
Mortality rate ([8]; control 30.4%): 13.6%
Serious adverse events ([8]; data safety monitoring board): no serious adverse events attributable to progesterone treatment
